{
  "source": "patent US10052346B2",
  "about": "“Treatment of myelodysplastic syndromes with 2-O and,or 3-O desulfated heparinoids” (Cantex Pharmaceuticals, Inc., priority 2015, dated 2018)",
  "key": {"[1]": {"tested_on": "advanced pancreatic cancer", "conditions": "dalteparin added to gemcitabine; cited from earlier work"}, "ovarian cancer": {"tested_on": "ovarian cancer", "conditions": "with standard chemotherapy regimen; cited from earlier work"}, "[2]": {"tested_on": "advanced prostate, lung, or pancreatic cancer", "conditions": "added to existing standard of care protocols; cited from earlier work"}, "[3]": {"tested_on": "acute myeloid leukemia (AML)", "experiment": "single arm open-label clinical study of ODSH with idarubicin + cytarabine induction (NCT02056782)", "format": "in vivo, human", "protocol": "A single arm open-label clinical study was conducted at multiple trial sites (University of Utah, Georgia Regents University, and Medical University of South Carolina) in patients with newly diagnosed acute myeloid leukemia (AML) to confirm that ODSH could accelerate platelet and white blood cell (WBC) recovery in patients receiving induction chemotherapy with a regimen known to have myelosuppressive side effects.\nAll patients received the following standard (“7+3”) induction regimen, • Idarubicin (12 mg/m^2/day) by short intravenous infusion on Days 1, 2, and 3; and • Cytarabine (100 mg/m^2) as a continuous intravenous infusion over 24 hours (Days 1 through 7).\nAll patients also received CX-01, a substantially 2-O, 3-O-desulfated heparin derivative (ODSH) as an intravenous bolus immediately after the idarubicin dose on Day 1, at a dose of 4 mg/kg, followed by a continuous intravenous infusion at a dose of 0.25 mg/kg/hr for a total of 7 days (Days 1 through 7).\nTwelve patients were enrolled. The median age was 56 (range 22-74). Based on cytogenetic, molecular, or antecedent hematologic disorder, 9 of 12 patients fell into the intermediate or poor risk categories. […] Complete remission at the end of the induction cycle was assessed using International Working Group (IWG) criteria (see, e.g., Cheson et al., J. Clin. Oncol. 21:4642 (2003)).\nPlatelet, neutrophil, and WBC recovery of the ODSH-treated AML patients was compared with the recovery in historical control patients receiving identical doses of idarubicin and cytarabine as induction therapy in a previous clinical study comparing idarubicin and daunorubicin in combination with cytarabine (Vogler et al., J. Clin. Oncol. 10(7):1103-11(1992)). In the previous study, 101 patients received idarubicin 12 mg/m^2 on days 1, 2, and 3 and cytarabine 100 mg/m^2 on days 1-7. Growth factors were not administered to any patient."}, "anti-thrombin III": {"target": "anti-thrombin III (Homo sapiens, UniProt P01008)", "sequence (P01008 33-464, species assumed)": "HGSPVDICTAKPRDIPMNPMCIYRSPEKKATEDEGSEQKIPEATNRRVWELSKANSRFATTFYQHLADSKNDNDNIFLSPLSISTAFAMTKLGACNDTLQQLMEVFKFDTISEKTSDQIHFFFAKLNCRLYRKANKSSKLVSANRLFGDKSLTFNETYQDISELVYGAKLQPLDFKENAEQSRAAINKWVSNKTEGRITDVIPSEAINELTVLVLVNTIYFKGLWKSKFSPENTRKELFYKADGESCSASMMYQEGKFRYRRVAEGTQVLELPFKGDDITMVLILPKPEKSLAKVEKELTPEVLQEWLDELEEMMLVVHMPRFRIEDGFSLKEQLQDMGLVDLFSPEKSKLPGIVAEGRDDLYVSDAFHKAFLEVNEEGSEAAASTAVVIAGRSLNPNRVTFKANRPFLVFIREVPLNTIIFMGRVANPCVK", "experiment": "affinity for anti-thrombin III", "format": "binding", "conditions": "for Kd: measured as described in Rao et al.; for Kd for anti-thrombin III: same Kd as mass concentration"}, "human pancreatic cancer": {"tested_on": "human pancreatic cancer", "conditions": "regimen that includes gemcitabine; cited from earlier work"}, "[4]": {"experiment": "stability testing of CX-01 infusion solutions", "format": "physicochemical", "conditions": "room temperature; diluted in 0.9% sodium chloride", "protocol": "Based upon current stability testing data, CX-01 infusion solutions expire at room temperature 72 hours after preparation and should be stored in a refrigerator (2 to 8° C.) until used."}, "[5]": {"tested_on": "metastatic adenocarcinoma of the pancreas", "conditions": "cited from earlier work"}, "bone marrow": {"tested_on": "bone marrow", "experiment": "serial bone marrow biopsies in the AML trial", "format": "in vivo, human", "conditions": "one patient treated with ODSH, cytarabine and idarubicin; for bone marrow biopsy appearance at Day 14 of the induction cycle: FIG. 2B; for bone marrow biopsy appearance at Day 28: FIG. 2C", "description": "Bone marrow biopsies were obtained in the AML, trial described in Example 1.\nFIGS. 2A-2C are photomicrographs of biopsies from one of the patients."}, "[6]": {"experiment": "clotting time in an aPTT assay after administration to a subject", "format": "in vivo", "conditions": "ODSH at a dose equivalent in weight to a fully-anticoagulating dose of unfractionated heparin; UFH at fully anticoagulant dose; normal about 27 to 35 seconds", "description": "In contrast to unfractionated heparin, ODSH is substantially non-anticoagulating: administered to a subject at a dose that is equivalent in weight to a fully-anticoagulating dose of unfractionated heparin, the clotting time measured in an aPTT assay is no greater than 45 seconds, and typically in the upper range of normal, where normal clotting time ranges from about 27 to 35 seconds. By comparison, unfractionated heparin administered to a subject at a fully anticoagulant dose causes time to clot to range from about 60 to about 85 seconds in an aPTT assay."}, "[7]": {"conditions": "comparator heparin; Rao et al.; cited from earlier work"}, "Xa": {"target": "T1, Xa (Homo sapiens, UniProt P00742)", "T1 construct": "an assay carried out using plasma treated with Russell viper venom; from tissue; host or cells: plasma", "T1 sequence (P01008 33-464 partner)": "as the sequence (P01008 33-464, species assumed) above", "T1 sequence (P00742 235-488 limits assumed)": "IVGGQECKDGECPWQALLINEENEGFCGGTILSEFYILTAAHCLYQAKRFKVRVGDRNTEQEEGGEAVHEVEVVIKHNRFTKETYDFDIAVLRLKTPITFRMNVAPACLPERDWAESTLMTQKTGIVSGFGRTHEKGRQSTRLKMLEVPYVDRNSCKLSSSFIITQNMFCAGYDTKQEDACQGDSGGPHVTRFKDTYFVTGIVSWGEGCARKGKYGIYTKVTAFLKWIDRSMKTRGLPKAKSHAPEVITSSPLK", "conditions": "comparator heparin; Rao et al.; cited from earlier work"}, "pancreatic cancer model": {"tested_on": "pancreatic cancer model", "conditions": "in vivo; cited from earlier work"}, "IIa": {"target": "IIa (Homo sapiens, UniProt P00734+P01008)", "conditions": "comparator heparin; Rao et al.; cited from earlier work"}, "[8]": {"conditions": "median follow-up of 14.2 months"}, "[9]": {"conditions": "ODSH added to gemcitabine plus nab-paclitaxel"}},
  "note": "“Also recorded” adds a separate entry of the source.",
  "data": [
    {"substance": "dalteparin", "values": [
      {"measurement": "survival", "setting": "[1]", "result": "no statistically significant improvement in survival"},
      {"measurement": "outcome", "setting": "ovarian cancer", "result": "could not be shown to improve outcome"}
    ]},
    {"substance": "nadroparin", "values": [
      {"measurement": "survival benefit", "setting": "[2]", "result": "no statistically significant survival benefit"}
    ]},
    {"substance": "substantially 2-O, 3-O desulfated heparin [ODSH]", "values": [
      {"measurement": "patients remaining in complete remission", "setting": "[3]; 5-13 months after having been enrolled in the study", "result": "10 of the 12"},
      {"measurement": "patients with primary AML achieving complete remission at the end of a single induction cycle", "setting": "[3]; 11 patients with primary AML", "result": 11},
      {"measurement": "myelosuppressive side effects of the idarubicin+cytarabine regimen", "setting": "[3]; AML patients", "result": "significantly attenuated the myelosuppressive side effects"},
      {"measurement": "Complete response with first induction cycle (morphologic complete remission, IWG criteria)", "setting": "[3]; AML patients, n = 12, 11 out of 12", "result": 92, "unit": "%"},
      {"measurement": "median OS", "setting": "[3]; [8]", "result": "≥ 13.6", "unit": "months"},
      {"measurement": "median event free survival", "setting": "[3]; [8]", "result": 13.5, "unit": "months"},
      {"measurement": "median time to relapse", "setting": "[3]; six patients who relapsed", "result": 8, "unit": "months"},
      {"measurement": "Kd", "setting": "anti-thrombin III", "result": "~339", "unit": "µM"},
      {"measurement": "Kd for anti-thrombin III", "setting": "anti-thrombin III", "result": "~4000", "unit": "µg/mL"},
      {"measurement": "efficacy of chemotherapy regimen in animal model", "setting": "human pancreatic cancer", "result": "improves the efficacy of a chemotherapy regimen; also recorded: sensitize cancer cells to chemotherapy"},
      {"measurement": "expiry of infusion solutions after preparation", "setting": "[4]", "result": 72, "unit": "h"},
      {"measurement": "overall survival", "setting": "[5]; [9]", "result": "did not provide a statistically significant increase; also recorded: no statistically significant benefit"},
      {"measurement": "progression-free survival", "setting": "[5]; [9]", "result": "did not provide a statistically significant increase; also recorded: no statistically significant benefit"},
      {"measurement": "myelosuppressive side effects of the gemcitabine plus nab-paclitaxel regimen", "setting": "[5]; U.S. Pat. No. 8,734,804", "result": "attenuate the myelosuppressive side effects"},
      {"measurement": "bone marrow biopsy appearance at Day 14 of the induction cycle", "setting": "bone marrow", "result": "elimination of most normal bone marrow cells as well as leukemia cells"},
      {"measurement": "bone marrow biopsy appearance at Day 14 of the induction cycle", "setting": "bone marrow; listed as CX-01 ODSH", "result": "significant depletion of normal bone marrow cells"},
      {"measurement": "bone marrow biopsy appearance at Day 28", "setting": "bone marrow", "result": "no evidence of leukemic cells and restoration of normal bone marrow appearance and function"},
      {"measurement": "bone marrow biopsy appearance at Day 28", "setting": "bone marrow; listed as CX-01 ODSH", "result": "no evidence of leukemia and restoration of normal bone marrow appearance and function"},
      {"measurement": "clotting time measured in an aPTT assay", "setting": "[6]", "result": "≤ 45", "unit": "s"}
    ]},
    {"substance": "unfractionated heparin", "values": [
      {"measurement": "anticoagulant activity in the USP anticoagulant assay", "setting": "[7]", "result": "165-190 U/mg"},
      {"measurement": "anti-Xa activity", "setting": "Xa", "result": "165-190 U/mg"},
      {"measurement": "potency of gemcitabine", "setting": "pancreatic cancer model", "result": "enhances potency of gemcitabine"},
      {"measurement": "Kd", "setting": "anti-thrombin III", "result": 1.56, "unit": "µM"},
      {"measurement": "Kd for anti-thrombin III", "setting": "anti-thrombin III", "result": 22, "unit": "µg/mL"},
      {"measurement": "anti-IIa activity", "setting": "IIa", "result": "165-190 U/mg"}
    ]}
  ]
}
